Test results reported in patent publication US10138292B2, “Cell culture medium” (BIOLAMINA AB, priority 2010, dated 2018).

How the values were obtained:
Oct4 and Nanog mRNA = experiment: Real-time quantitative RT-PCR of pluripotency markers (Example 1); assay type: cell-based, human; conditions: after several passages
Method: Total RNA was isolated and cDNA was synthesized as described in Rodin et al., Nature Biotechnol., vol. 28, pp. 611-615 (2010). Real-time quantitative RT-PCR Taqman assays were performed using the Applied Biosystems 7300 Real-Time PCR System. All reactions were done in quadruplicate with predeveloped gene expression assay mix (Applied Biosystems) containing primers and a probe for the mRNA of interest. Additional reactions for each experiment included predeveloped gene expression assay mix for GAPDH, used to normalize the RNA input. All data were analyzed with 7300 System SDS Software version 1.4.

hES cell lines = experiment: Karyotyping; assay type: cell-based, human; conditions: HS181 12 passages and H1 10 passages in O3 medium; H1 7 passages in TeSR2
Method: Karyotyping of the cell lines was carried out using standard Q-banding techniques. Samples of cells were treated with colcemid KaryoMAX (0.1 μg/ml; Gibco Invitrogen Corporation) for up to 4 hours, followed by dissociation with Trypsin/EDTA solution (Gibco Invitrogen Corporation). The cells were pelleted via centrifugation and re-suspended in pre-warmed 0.0375 M KCl hypotonic solution and incubated for 10 minutes. Following centrifugation, the cells were resuspended in fixative (3:1 methanol:acetic acid). Metaphase spreads were prepared on glass microscope slides and G-banded by brief exposure to trypsin and stained with 4:1 Gurr's/Leishmann's stain (Sigma-Aldrich Co.). A minimum of 10 metaphase spreads were analyzed and additional 20 were counted.

[1] = system: phosphorylated myosin light chain (P-MLC); experiment: Western blot of phosphorylated myosin light chain; assay type: cell-based, human; conditions: one and six hours after plating
Method: HS 181 cells were trypsinized into single cell suspension as described above. For inhibition experiments, the cells were kept in O3 medium with blocking antibodies or pathway inhibitors for 30 minutes and then 450K cells were plated on 35 mm dishes precoated with the appropriate matrix coating. For other experiments, same number of cells was plated directly after trypsinization. […] After two washings in ice-cold PBS, the plates with cells were snap frozen in liquid nitrogen and stored at −80° C. To prepare samples for western blots and ELISA, the plates were slowly thawed and kept on ice with 100-150 μl of lysis buffer (50 mM Tris-HCl, pH7.5, 150 mM NaCl, 0.5% deoxycholate, 0.5% SDS, 1% Triton X-100, 1% Igepal, Complete™ (Roche) and Phospho-Stop™ (Roche)) on top. Then, the cells were scraped, pipetted and sheared through a 27G ¾″ needle. After that, the cell pellets were clarified by centrifugation at 16,100 rcf for 15 minutes at 4° C. For western blots, 4-12% gradient gels were used for SDS electrophoresis and the proteins were transferred to PVDF membranes. The membrane was hybridized with the antibody of interest according to the manufacturer's instructions. Chemoluminescent HRP-substrate from Amersham Biosciences was used for visualization. For the densitometry analysis the films were scanned at 2,400 dpi and analyzed by the Chemilmager5500 program (1D-Multi Line densitometry mode). […]

Integrin α6β1 = Integrin α6β1 (Homo sapiens, UniProt P05556+P23229); conditions: cited from earlier work
Integrin α6β1, sequence (P23229 24-1130): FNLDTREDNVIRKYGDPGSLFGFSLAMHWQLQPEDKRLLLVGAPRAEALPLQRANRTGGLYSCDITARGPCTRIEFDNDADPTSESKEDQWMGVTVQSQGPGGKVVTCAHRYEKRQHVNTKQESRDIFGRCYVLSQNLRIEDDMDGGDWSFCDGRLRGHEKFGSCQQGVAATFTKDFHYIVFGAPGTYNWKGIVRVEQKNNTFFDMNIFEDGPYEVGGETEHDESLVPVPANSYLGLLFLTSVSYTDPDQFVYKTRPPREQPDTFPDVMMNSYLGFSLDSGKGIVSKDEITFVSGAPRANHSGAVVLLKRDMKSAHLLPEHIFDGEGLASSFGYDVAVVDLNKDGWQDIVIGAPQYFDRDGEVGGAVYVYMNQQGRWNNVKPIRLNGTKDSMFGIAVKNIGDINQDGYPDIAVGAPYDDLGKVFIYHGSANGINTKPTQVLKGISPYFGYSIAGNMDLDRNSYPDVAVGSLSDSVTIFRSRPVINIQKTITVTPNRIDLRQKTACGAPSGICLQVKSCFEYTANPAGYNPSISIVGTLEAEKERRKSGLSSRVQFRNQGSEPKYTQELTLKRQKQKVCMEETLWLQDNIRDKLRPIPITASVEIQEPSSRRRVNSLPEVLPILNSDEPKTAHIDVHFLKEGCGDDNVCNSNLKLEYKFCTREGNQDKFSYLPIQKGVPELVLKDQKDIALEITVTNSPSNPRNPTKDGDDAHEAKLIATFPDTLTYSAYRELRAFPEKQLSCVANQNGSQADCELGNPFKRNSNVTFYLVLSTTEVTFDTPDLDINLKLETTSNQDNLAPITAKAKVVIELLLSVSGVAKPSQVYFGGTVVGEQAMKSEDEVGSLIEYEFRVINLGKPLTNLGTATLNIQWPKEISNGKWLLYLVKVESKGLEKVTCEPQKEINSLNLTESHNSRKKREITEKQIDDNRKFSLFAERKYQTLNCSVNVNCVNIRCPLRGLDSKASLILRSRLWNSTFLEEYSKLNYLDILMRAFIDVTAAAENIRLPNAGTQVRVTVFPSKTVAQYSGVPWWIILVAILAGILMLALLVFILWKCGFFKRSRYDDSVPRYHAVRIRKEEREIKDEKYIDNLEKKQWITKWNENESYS
Integrin α6β1, sequence (P05556 21-798): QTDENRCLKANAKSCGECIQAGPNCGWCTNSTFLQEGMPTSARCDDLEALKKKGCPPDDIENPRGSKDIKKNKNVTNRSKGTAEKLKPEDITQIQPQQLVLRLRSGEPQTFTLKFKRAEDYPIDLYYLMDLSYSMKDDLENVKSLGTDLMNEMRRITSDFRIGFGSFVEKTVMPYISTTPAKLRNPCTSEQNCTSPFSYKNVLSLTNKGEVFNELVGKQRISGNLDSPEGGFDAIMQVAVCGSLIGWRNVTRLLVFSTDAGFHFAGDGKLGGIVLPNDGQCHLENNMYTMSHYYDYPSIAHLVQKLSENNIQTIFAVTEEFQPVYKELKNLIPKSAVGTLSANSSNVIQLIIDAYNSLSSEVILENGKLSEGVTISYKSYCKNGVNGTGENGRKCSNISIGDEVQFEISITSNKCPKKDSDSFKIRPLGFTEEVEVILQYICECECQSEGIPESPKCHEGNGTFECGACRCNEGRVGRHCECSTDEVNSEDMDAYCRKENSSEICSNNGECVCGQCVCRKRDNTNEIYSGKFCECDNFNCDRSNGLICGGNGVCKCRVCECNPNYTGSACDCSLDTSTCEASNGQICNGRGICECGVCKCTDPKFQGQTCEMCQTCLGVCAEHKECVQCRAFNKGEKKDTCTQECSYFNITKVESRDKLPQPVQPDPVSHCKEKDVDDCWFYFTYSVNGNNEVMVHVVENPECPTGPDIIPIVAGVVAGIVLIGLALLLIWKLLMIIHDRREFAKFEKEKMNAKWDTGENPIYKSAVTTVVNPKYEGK

LN-521: protein formed by joining α5, β2 and γ1 laminin chains; human recombinant, produced in HEK293 cells
number of mRNA transcripts of Oct4 and Nanog compared with Matrigel (Oct4 and Nanog mRNA): higher numbers of transcripts | karyotype (hES cell lines): normal | phosphorylation of MLC compared with cells on Matrigel and LN-111 [1]: even higher | binding affinity of integrin α6β1 compared with LN-111 (Integrin α6β1): higher
